Reference: patent US20260356851A1, “TRICYCLIC COMPOUNDS AND USES THEREOF” (HUTCHMED LIMITED, priority 2023, published 2026)
Read-outs that look alike come from different tables or passages of the source.

Assays:
Format in all cases: cell-based
[1] = biological target: T1, pERK1/2 (Thr202/Tyr204), PANC-1 (KRAS G121D) (Homo sapiens, UniProt P01116, G12D); assay: Assay of intracellular pERK1/2 (Thr202/Tyr204) phosphorylation in PANC-1 cells (KRAS G12D)
T1 construct: pERK1/2 HTRF read-out
Outline: (§1)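 HTRF detection of Thr202/Tyr204-phosphorylated ERK1/2 (665/615 nm ratio) in lysates from cells treated 2 days with serially 3-fold diluted compound.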

[2] = biological target: T2, pERK1/2 (Thr202/Tyr204), NCI-1H441 (KRAS G12V) (Homo sapiens, UniProt P01116, G12V); assay: Assay of intracellular pERK1/2 (Thr202/Tyr204) phosphorylation in NCI-H441 cells (KRAS G12V)
T2 construct: pERK1/2 HTRF read-out
Outline: as §1

[3] = biological target: T3, pERK1/2 (Thr202/Tyr204), NCI-1H358 (KRAS G12C) (Homo sapiens, UniProt P01116, G12C); assay: Assay of intracellular pERK1/2 (Thr202/Tyr204) phosphorylation in NCI-H358 cells (KRAS G12C)
T3 construct: pERK1/2 HTRF read-out
Outline: as §1

[4] = pERK1/2, 2 days, read-out: PANC-1 (KRAS G12D) IC50
[5] = pERK1/2, 2 days, read-out: NCI-H441 (KRAS G12V) IC50
[6] = pERK1/2, 2 days, read-out: NCI-H358 (KRAS G12C) IC50

T3 sequence (P01116 1-188 isoform P01116-2 G12C): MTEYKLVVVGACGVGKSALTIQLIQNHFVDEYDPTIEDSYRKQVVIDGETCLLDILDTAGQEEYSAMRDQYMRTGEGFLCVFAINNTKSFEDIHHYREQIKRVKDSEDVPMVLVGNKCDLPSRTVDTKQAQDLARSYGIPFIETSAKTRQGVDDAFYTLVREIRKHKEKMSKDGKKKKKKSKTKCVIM
T2 sequence (P01116 1-188 isoform P01116-2 G12V): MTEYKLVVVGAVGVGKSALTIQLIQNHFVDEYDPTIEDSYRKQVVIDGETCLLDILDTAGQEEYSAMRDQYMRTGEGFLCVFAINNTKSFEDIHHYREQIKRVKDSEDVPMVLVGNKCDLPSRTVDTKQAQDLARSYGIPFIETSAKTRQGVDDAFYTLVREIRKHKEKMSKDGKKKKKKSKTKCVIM
T1 sequence (P01116 1-188 isoform P01116-2 G12D): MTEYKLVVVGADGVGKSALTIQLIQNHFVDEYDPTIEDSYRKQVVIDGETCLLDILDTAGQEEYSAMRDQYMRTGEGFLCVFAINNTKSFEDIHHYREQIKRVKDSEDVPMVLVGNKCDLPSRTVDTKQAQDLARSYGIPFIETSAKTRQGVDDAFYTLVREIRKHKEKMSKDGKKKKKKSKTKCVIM

## [2H]C1([2H])CC[C@@]2(C([2H])([2H])Oc3nc4c5c(nc(-c6cc(N)c(F)c(C)c6C(F)(F)F)c(F)c5n3)OCCN4C(C)c3cccnc3N)C[C@@]([2H])(F)CN12 (single isomer, unassigned; diastereomer 1) [Compound 178, (*)3-(1-(5-(5-amino-4-fluoro-3-methyl-2-(trifluoromethyl)phenyl)-4-fluoro-2-(((2R or 2S,7aS)-2-fluorotetrahydro-1H-pyrrolizin-7a(5H)-yl-2,5,5-d3)methoxy-d2)-8,9-dihydro-10H-7-oxa-1,3,6,10-tetraazacyclohepta[de]naphthalen-10-yl)ethyl)pyridin-2-amine (diastereomer 1)]
[1]; [4]
  IC50: 1 nM
[2]; [5]
  IC50: 0.4 nM
[3]; [6]
  IC50: 0.1 nM

## Cc1c(F)c(N)cc(-c2nc3c4c(nc(OC[C@@]56CCCN5C[C@@]5(CC5(F)F)C6)nc4c2F)N(C(C)c2cccnc2N)CCO3)c1C(F)(F)F (single isomer, unassigned; diastereomer 1) [Compound 238, (*)3-(1-(5-(5-amino-4-fluoro-3-methyl-2-(trifluoromethyl)phenyl)-2-(((1R or 1S,7a′S)-2,2-difluorodihydro-1′H,3′H-spiro[cyclopropane-1,2′-pyrrolizin]-7a′(5′H)-yl)methoxy)-4-fluoro-8,9-dihydro-10H-7-oxa-1,3,6,10-tetraazacyclohepta[de]naphthalen-10-yl)ethyl)pyridin-2-amine (diastereomer 1)]
[1]; [4]
  IC50: 0.8 nM
[2]; [5]
  IC50: 0.6 nM
[3]; [6]
  IC50: 0.2 nM

## Cc1c(F)c(N)cc(-c2nc3c4c(nc(OCC56CC(F)CN5CC(F)C6)nc4c2F)N(C(C)c2cccnc2N)CCO3)c1C(F)(F)F (single isomer, unassigned; diastereomer 1) [Compound 241, (*)3-(1-(5-(5-amino-4-fluoro-3-methyl-2-(trifluoromethyl)phenyl)-2-(((2R or 2S,6R or 6S)-2,6-difluorotetrahydro-1H-pyrrolizin-7a(5H)-yl)methoxy)-4-fluoro-8,9-dihydro-10H-7-oxa-1,3,6,10-tetraazacyclohepta[de]naphthalen-10-yl)ethyl)pyridin-2-amine (diastereomer 1)]
[1]; [4]
  IC50: 13 nM
[2]; [5]
  IC50: 0.9 nM
[3]; [6]
  IC50: 0.2 nM

## CC(c1cccnc1N)N1CCOc2nc(-c3cc(N)c(F)c(Cl)c3C(F)(F)F)c(F)c3nc(OCC45CC(F)CN4CC(F)C5)nc1c23 (single isomer, unassigned; diastereomer 1) [Compound 245, (*)3-(1-(5-(5-amino-3-chloro-4-fluoro-2-(trifluoromethyl)phenyl)-2-(((2R or 2S,6R or 6S)-2,6-difluorotetrahydro-1H-pyrrolizin-7a(5H)-yl)methoxy)-4-fluoro-8,9-dihydro-10H-7-oxa-1,3,6,10-tetraazacyclohepta[de]naphthalen-10-yl)ethyl)pyridin-2-amine (diastereomer 1)]
[1]; [4]
  IC50: 10 nM
[2]; [5]
  IC50: 0.5 nM
[3]; [6]
  IC50: 0.2 nM

## CC(c1cccnc1N)N1c2nc(OC[C@@]34CCCN3C[C@H](F)C4)nc3c(F)c(-c4c(C(F)(F)F)ccc5c4CCCN5)nc(c23)OC[C@@H]1C (single isomer, unassigned; diastereomer 1) [Compound 338, (*)3-(1-((5R or 5S,9S)-4-fluoro-2-(((2R,7aS)-2-fluorotetrahydro-1H-pyrrolizin-7a(5H)-yl)methoxy)-9-methyl-5-(6-(trifluoromethyl)-1,2,3,4-tetrahydroquinolin-5-yl)-8,9-dihydro-10H-7-oxa-1,3,6,10-tetraazacyclohepta[de]naphthalen-10-yl)ethyl)pyridin-2-amine (diastereomer 1)]
[1]; [4]
  IC50: > 100 nM
[2]; [5]
  IC50: 49 nM
[3]; [6]
  IC50: 23 nM

## [2H]C1([2H])CC[C@@]2(C([2H])([2H])Oc3nc4c5c(nc(-c6cc(N)c(F)c(C)c6C(F)(F)F)c(F)c5n3)OCCN4C(C)c3cccnc3N)C[C@]([2H])(F)CN12 (single isomer, unassigned; diastereomer 2) [Compound 179, (*)3-(1-(5-(5-amino-4-fluoro-3-methyl-2-(trifluoromethyl)phenyl)-4-fluoro-2-(((2R or 2S,7aS)-2-fluorotetrahydro-1H-pyrrolizin-7a(5H)-yl-2,5,5-d3)methoxy-d2)-8,9-dihydro-10H-7-oxa-1,3,6,10-tetraazacyclohepta[de]naphthalen-10-yl)ethyl)pyridin-2-amine (diastereomer 2)]
[1]; [4]
  IC50: 20 nM
[2]; [5]
  IC50: 3 nM
[3]; [6]
  IC50: 1 nM

## Cc1c(F)c(N)cc(-c2nc3c4c(nc(OC[C@@]56CCCN5C[C@]5(CC5(F)F)C6)nc4c2F)N(C(C)c2cccnc2N)CCO3)c1C(F)(F)F (single isomer, unassigned; diastereomer 2) [Compound 239, (*)3-(1-(5-(5-amino-4-fluoro-3-methyl-2-(trifluoromethyl)phenyl)-2-(((1R or 1S,7a′S)-2,2-difluorodihydro-1′H,3′H-spiro[cyclopropane-1,2′-pyrrolizin]-7a′(5′H)-yl)methoxy)-4-fluoro-8,9-dihydro-10H-7-oxa-1,3,6,10-tetraazacyclohepta[de]naphthalen-10-yl)ethyl)pyridin-2-amine (diastereomer 2)]
[1]; [4]
  IC50: 2 nM
[2]; [5]
  IC50: 0.4 nM
[3]; [6]
  IC50: 0.3 nM

## Cc1c(F)c(N)cc(-c2nc3c4c(nc(OCC56CC(F)CN5CC(F)C6)nc4c2F)N(C(C)c2cccnc2N)CCO3)c1C(F)(F)F (single isomer, unassigned; diastereomer 2) [Compound 242, (*)3-(1-(5-(5-amino-4-fluoro-3-methyl-2-(trifluoromethyl)phenyl)-2-(((2R or 2S,6R or 6S)-2,6-difluorotetrahydro-1H-pyrrolizin-7a(5H)-yl)methoxy)-4-fluoro-8,9-dihydro-10H-7-oxa-1,3,6,10-tetraazacyclohepta[de]naphthalen-10-yl)ethyl)pyridin-2-amine (diastereomer 2)]
[1]; [4]
  IC50: > 100 nM
[2]; [5]
  IC50: 3 nM
[3]; [6]
  IC50: 0.4 nM

## CC(c1cccnc1N)N1CCOc2nc(-c3cc(N)c(F)c(Cl)c3C(F)(F)F)c(F)c3nc(OCC45CC(F)CN4CC(F)C5)nc1c23 (single isomer, unassigned; diastereomer 2) [Compound 246, (*)3-(1-(5-(5-amino-3-chloro-4-fluoro-2-(trifluoromethyl)phenyl)-2-(((2R or 2S,6R or 6S)-2,6-difluorotetrahydro-1H-pyrrolizin-7a(5H)-yl)methoxy)-4-fluoro-8,9-dihydro-10H-7-oxa-1,3,6,10-tetraazacyclohepta[de]naphthalen-10-yl)ethyl)pyridin-2-amine (diastereomer 2)]
[1]; [4]
  IC50: 63 nM
[2]; [5]
  IC50: 2 nM
[3]; [6]
  IC50: 0.4 nM

## CC(c1cccnc1N)N1c2nc(OC[C@@]34CCCN3C[C@H](F)C4)nc3c(F)c(-c4c(C(F)(F)F)ccc5c4CCCN5)nc(c23)OC[C@@H]1C (single isomer, unassigned; diastereomer 2) [Compound 339, (*)3-(1-((5R or 5S,9S)-4-fluoro-2-(((2R,7aS)-2-fluorotetrahydro-1H-pyrrolizin-7a(5H)-yl)methoxy)-9-methyl-5-(6-(trifluoromethyl)-1,2,3,4-tetrahydroquinolin-5-yl)-8,9-dihydro-10H-7-oxa-1,3,6,10-tetraazacyclohepta[de]naphthalen-10-yl)ethyl)pyridin-2-amine (diastereomer 2)]
[1]; [4]
  IC50: > 100 nM
[2]; [5]
  IC50: > 100 nM
[3]; [6]
  IC50: > 100 nM

## CC(c1cccnc1N)N1CCOc2nc(-c3cc(O)cc4ccc(F)c(F)c34)c(F)c3nc(OC[C@@]45CCCN4C[C@H](F)C5)nc1c23 (stereo partly drawn) [Compound 1, 4-(10-(1-(2-Aminopyridin-3-yl)ethyl)-4-fluoro-2-(((2R,7aS)-2-fluorotetrahydro-1H-pyrrolizin-7a(5H)-yl)methoxy)-9,10-dihydro-8H-7-oxa-1,3,6,10-tetraazacyclohepta[de]naphthalen-5-yl)-5,6-difluoronaphthalen-2-ol]
[1]; read-out: PANC-1 (KRAS G12D) IC50, pERK1/2, 2 days
  IC50: 6 nM
[2]; read-out: NCI-H441 (KRAS G12V) IC50, pERK1/2, 2 days
  IC50: 3 nM
[3]; read-out: NCI-H358 (KRAS G12C) IC50, pERK1/2, 2 days
  IC50: 0.7 nM

## Cc1cc2[nH]ncc2c(-c2nc3c4c(nc(OC[C@@]56CCCN5C[C@H](F)C6)nc4c2F)N(C(C)c2cccnc2N)CCO3)c1C (stereo partly drawn) [Compound 2, 3-(1-(5-(5,6-Dimethyl-1H-indazol-4-yl)-4-fluoro-2-(((2R,7aS)-2-fluorotetrahydro-1H-pyrrolizin-7a(5H)-yl)methoxy)-8,9-dihydro-1OH-7-oxa-1,3,6,10-tetraazacyclohepta[de]naphthalen-10-yl)ethyl)pyridin-2-amine]
[1]; [4]
  IC50: 321 nM
[2]; [5]
  IC50: 42 nM
[3]; [6]
  IC50: 9 nM

## Cc1cc2[nH]ncc2c(-c2nc3c4c(nc(O)nc4c2F)N(C(C)c2cccnc2N)CCO3)c1C (stereo not drawn) [Compound 3, 10-(1-(2-Aminopyridin-3-yl)ethyl)-5-(5,6-dimethyl-1H-indazol-4-yl)-4-fluoro-9,10-dihydro-8H-7-oxa-1,3,6,10-tetraazacyclohepta[de]naphthalen-2-ol]
[1]; [4]
  IC50: > 1000 nM
[2]; [5]
  IC50: > 1000 nM
[3]; [6]
  IC50: > 1000 nM

## CC(c1cccnc1N)N1CCOc2nc(-c3cc(O)cc(Cl)c3C3CC3)c(F)c3nc(OC[C@@]45CCCN4C[C@H](F)C5)nc1c23 (stereo partly drawn) [Compound 4]
[1]; [4]
  IC50: 10 nM
[2]; [5]
  IC50: 2 nM
[3]; [6]
  IC50: 1 nM

## Cc1cc2[nH]ncc2c(-c2nc3c4c(nc(OCC5(CN(C)C)CC5)nc4c2F)N(C(C)c2cccnc2N)CCO3)c1C (stereo not drawn) [Compound 5]
[1]; [4]
  IC50: > 1000 nM
[2]; [5]
  IC50: > 1000 nM
[3]; [6]
  IC50: 710 nM

## CC(c1cccnc1N)N1CCOc2nc(-c3cc(O)cc4ccc(F)c(F)c34)c(F)c3nc(OC[C@@H]4CCCN4C)nc1c23 (stereo partly drawn) [Compound 6]
[1]; [4]
  IC50: 136 nM
[2]; [5]
  IC50: 17 nM
[3]; [6]
  IC50: 4 nM
